Results from patent US20240352494A1, “HETEROLOGOUS PRODUCTION OF […] YEASTS” (ADAMA CHILE SA, priority 2021, published 2024).

Tested on: A. thaliana seedlings
Assay: hypocotyl length assay (inhibition of hypocotyl elongation)
Type: in vivo, A. thaliana Col-0
Conditions: tZ standard at 0.14, 0.28 and 0.56 mg/L (mean of all treatments, no significant difference between them); seedlings grown in darkness, measured after 8 days
Experimental: The bioactivity of the produced cytokinins was tested in A. thaliana by hypocotyl length assay. This assay is based on the capacity of cytokinins to inhibit hypocotyl elongation in A. thaliana seedlings (Cary et al., 1995, Plant Physiol., 107 (4): 1075-1082). Seeds of A. thaliana Col-0 were surface sterilized, sown on 0.5× Murashige and Skoog (MS) medium (Murashige and Skoog, 1962, Physiol. Plant., 15(13):473-497) (0.7% agar) without sucrose, and stratified in darkness for 3 days at 4° C. Seedlings were grown in complete darkness in a growth cabinet at 21°° C. Hypocotyl lengths were determined after 8 days of growth, and at least 15 seedlings were measured for each treatment.

SMILES: C/C(=C\CNc1ncnc2nc[nH]c12)CO [tZ standard, trans-zeatin]
- mean reduction in hypocotyl lengths: 58%
